Test results taken from patent US9427398B2, “Parenteral solutions containing metolazone” (Academic Pharmaceuticals Incorporated, priority 2008, dated 2016).

Key:
[1] = test system: Sprague-Dawley male rats; test: Diuretic action of parenteral formulations, intraperitoneal administration in rats (24 h urine volume and Na+); format: in vivo, rat; conditions: for urine output: 24 h urine, n=6, mean±SD; for urine volume voided over 24 hours compared with placebo: intraperitoneal, furosemide 2, 4, 6 mg/kg (P≦0.01), metolazone 2 mg/kg in 2 different formulations
Protocol: Sprague-Dawley male rats (400 to 500 g) were used for the in vivo experiments. The rats were housed at a controlled temperature (22° C.), fed regularly and had free access to water. Rats were divided into 7 groups with 6 animals per group for the purposes of the study. The rats were deprived of food and water for 24 hours before beginning the study. After this fasting period, normal saline ([…]) was given by oral route. […] All rats were placed in metabolic cages for urine collection. Urine was collected for 24 hours after injection, and the volume measured and the (Na^+) concentration in urine were determined using an ion-specific electrode method, NOVA CRT (NOVA Biomedical, Waltham, Mass.) All data are presented as mean±SD of n observations. For statistical comparison, one-way analysis or variance ANOVA or Student t test was employed. A two-sided P value≦0.05 was considered significant.

[2] = cited from earlier work

NS(=O)(=O)c1cc(C(=O)O)c(NCc2ccco2)cc1Cl [Furosemide, furosemide]
urine output ([1]; 2 mg/kg intraperitoneally): 9 ± 1 mL/day
urine output ([1]; 4 mg/kg intraperitoneally): 14 ± 2 mL/day
urine output ([1]; 6 mg/kg intraperitoneally): 17 ± 2 mL/day
urine volume voided over 24 hours compared with placebo [1]: significantly greater

Cc1ccccc1N1C(=O)c2cc(S(N)(=O)=O)c(Cl)cc2NC1C (stereo not shown) [Metolazone, 7 chloro-1,2,3,4-tetrahydro-2-methyl-3-(-2-methylphenyl)-4-oxo-6-quinazoline sulfonamide]
urine output ([1]; 2 mg/kg intraperitoneally): 16 ± 3 mL/day
urine volume voided over 24 hours compared with placebo [1]: greater in each instance
solubility in water [2]: sparingly soluble
